From patent US20150374755A1, “Treated Cells and Therapeutic Uses” (NHS BLOOD & TRANSPLANT, priority 2013, published 2015) come the findings set out here.

The subject of the assay is CD4 and CD8 T lymphocytes. Briefly: Suppression of stimulated T cell proliferation (CFSE) by drug pre-incubated MSC. The assay is classed as cell-based, human. Particulars: MSC pre-incubated with 50 ng/ml; FIG. 6. As for the experimental part: MSC derived from (FIG. 1A,E) bone marrow (BM) or (FIG. 1B-D) two independent umbilical cord (UC) preparations (WJ6060:FIG. 1B-C; WJ24-0: FIG. 1D) were incubated with Rapamycin overnight at concentrations from 0.4 to 50 ng/ml, or without drug (control (Ctl)). The MSC were washed, trypsinised, and plated in fresh medium without Rapamycin at 1, 5, and 25 k per well in 96 well plates. After 2-4 hours, human adult peripheral blood mononuclear cells (MNC) labelled with carboxyfluorescein succinimidyl ester (CFSE) were added, and the T lymphocytes therein were stimulated to proliferate with Phytohemagglutinin (PHA) (FIG. 1A-D) or anti-CD3, CD28 activation beads (FIG. 1E). Proliferation levels were determined after 3 days as described in the Methods section. […]
After 3-4 (PHA or bead stimulation) or 5-6 days (allostimulation) the cultures were analysed by flow cytofluorometry after staining for CD3 and CD4, and the CFSE dye-dilution profiles of CD3+CD4+ (CD4) and CD3+CD4- (CD8) lymphocytes were used to calculate proliferation indices (Lyons (2000)). To normalise the level of proliferation between experiments, the proliferation indices were calculated as: (proliferation index for condition X−proliferation index for unstimulated cells)/(proliferation index for PHA or bead stimulated control cells−proliferation index for unstimulated cells). […]

Take `CCC(=O)N1CCN(c2ccc(-n3c(=O)ccc4cnc5ccc(-c6cnc7ccccc7c6)cc5c43)cc2C(F)(F)F)CC1` [Torin 1]: the “super-suppression by pre-incubated MSC” value is reported as “no significant super-suppression”.
